Laboratory results: patent US6887896B1, “7-[(7-Alkoxy)-chrom-3-en-6-yl]-heptatrienoic acid and 7-[(3-alkoxy)-5,6-dihydronaphthalen-2-yl]-heptatrienoic acid derivatives having serum glucose reducing activity” (Allergan, Inc., priority 2003, dated 2005)

Legend:
RXRγ = target: T1, RXRγ (UniProt P28705); experiment: holoreceptor transactivation assay, RXRγ; assay type: cell-based; details: for EC50: holoreceptor transactivation, read-out: RXR Trans. EC50 γ; for RXR Trans. efficacy (number in parentheses) γ: percentage compared to the standard compound
T1 sequence (P28705 1-463): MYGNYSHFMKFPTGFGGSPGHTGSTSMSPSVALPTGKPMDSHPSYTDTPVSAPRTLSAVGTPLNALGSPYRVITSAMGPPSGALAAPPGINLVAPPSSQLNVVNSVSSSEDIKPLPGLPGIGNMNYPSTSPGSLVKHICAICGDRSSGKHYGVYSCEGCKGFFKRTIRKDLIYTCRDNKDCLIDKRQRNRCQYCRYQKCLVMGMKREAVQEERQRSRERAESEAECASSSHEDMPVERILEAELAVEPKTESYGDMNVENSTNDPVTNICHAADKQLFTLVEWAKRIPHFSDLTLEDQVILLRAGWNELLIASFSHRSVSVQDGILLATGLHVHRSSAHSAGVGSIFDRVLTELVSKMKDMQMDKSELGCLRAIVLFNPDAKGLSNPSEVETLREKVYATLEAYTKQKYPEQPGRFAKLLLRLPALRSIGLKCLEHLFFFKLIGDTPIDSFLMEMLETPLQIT
Source text: (§1) Specifically, one such assay is a chimeric receptor transactivation assay which tests for agonist-like activity in the R RAPE and RAR7 receptor subtypes, and which is based on work published by Feigner, P. L. and Holm, M (1989) Focus, 112 is described in detail in U.S. Pat. No. 5,455,265. The specification of U.S. Pat. No. 5,455,265 is hereby expressly incorporated by reference. A holoreceptor transactivation assay and a ligand binding assay which measure the antagonist/agonist like activity of the compounds of the invention, or their ability to bind to the several retinoid receptor subtypes, respectively, are described in published PCT Application No. WO WO93/11755 (particularly on pages 30-33 and 37-41) published on Jun. 24, 1993, the specification of which is also incorporated herein by reference. A detailed experimental procedure for holoreceptor transactivations has been described by Heyman et al. Cell 68, 397-406, (1992); Allegretto et al. J. Biol. Chem. 268, 26625-26633, and Mangelsdorf et al. The Retinoids: Biology, Chemistry and Medicine, pp 319-349, Raven Press Ltd., New York, which are expressly incorporated herein by reference. The results obtained in this assay are expressed in EC50 numbers, as they are also in the chimeric receptor transactivation assay. The results of the ligand binding assay are expressed in Ki numbers. (See Cheng et al. Biochemical Pharmacology Vol. 22 pp 3099-3108, expressly incorporated herein by reference.)
(§2) Efficacy in a transactivation assay is expressed as a percentage of the maximum potency attained by the compound compared to a standard which, in this case, is the compound named (2E,4E,1′S,2′S)-3-methyl-5-[2′-methyl-2′-(5,5,8,8-tetramethyl-5,6,7,8-tetrahydro-naphthalen-2-yl)-cyclopropyl]-penta-2,4-dienoic acid. This standard compound is described in U.S. Pat. No. 6,114,533.
(§3) The specification of this application for patent is organized in several sections in accordance with structural Formulas A through F each of which discloses a group of preferred compounds within the scope of the invention. Tables that disclose the activity of certain exemplary compounds of the invention in the above-described RXR receptor transactivation and binding assays are found in the corresponding sections. […] The transactivation data pertaining to the activation of RXR receptors were obtained in the holoreceptor assay.
(§4) Generally speaking, in the tables disclosing the results of transactivation and binding assays the numbers in parentheses indicate efficacy as a percentage compared to the standard compound, (2E,4E,1′S,2′S)-3-methyl-5-[2′-methyl-2′-(5,5,8,8-tetramethyl-5,6,7,8-tetrahydro-naphthalen-2-yl)cyclopropyl]-penta-2,4-dienoic acid and the other numbers indicate the measured EC50 and K; in nanomolar concentration.

RARβ = target: T2, RARβ (Homo sapiens, UniProt P10826); experiment: chimeric receptor transactivation assay, RARβ; assay type: cell-based; details: for EC50: chimeric receptor transactivation, read-out: RAR Trans. EC50 β; for Emax: percentage compared to the standard compound, read-out: RAR Trans. efficacy (number in parentheses) β
T2 sequence (P10826 183-417 limits assumed): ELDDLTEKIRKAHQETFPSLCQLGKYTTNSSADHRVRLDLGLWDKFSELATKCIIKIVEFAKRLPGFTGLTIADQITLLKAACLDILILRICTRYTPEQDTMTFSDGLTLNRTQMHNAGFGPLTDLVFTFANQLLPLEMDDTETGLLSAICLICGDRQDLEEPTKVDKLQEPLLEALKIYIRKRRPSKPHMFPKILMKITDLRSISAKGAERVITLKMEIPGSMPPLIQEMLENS
Source text: as §1, §2, §3, §4

RARα = target: T3, RARα (Homo sapiens, UniProt P10276); experiment: ligand binding assay, RARα; details: read-out: RAR Bind. Ki α
T3 sequence (P10276 1-462): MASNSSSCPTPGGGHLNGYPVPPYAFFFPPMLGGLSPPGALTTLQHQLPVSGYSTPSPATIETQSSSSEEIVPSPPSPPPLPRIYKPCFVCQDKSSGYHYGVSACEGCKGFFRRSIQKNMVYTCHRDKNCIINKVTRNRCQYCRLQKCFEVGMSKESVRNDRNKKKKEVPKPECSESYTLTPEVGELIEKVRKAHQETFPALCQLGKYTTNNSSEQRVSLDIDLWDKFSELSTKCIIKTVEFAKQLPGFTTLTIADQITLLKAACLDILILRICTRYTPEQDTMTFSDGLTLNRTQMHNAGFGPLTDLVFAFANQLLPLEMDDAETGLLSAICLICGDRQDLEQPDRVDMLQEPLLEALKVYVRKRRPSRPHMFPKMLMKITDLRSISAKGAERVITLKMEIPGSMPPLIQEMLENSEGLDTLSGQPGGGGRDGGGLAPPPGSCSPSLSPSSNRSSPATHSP
Source text: as §1, §4

RXRα = target: T4, RXRα (Homo sapiens, UniProt P19793); experiment: holoreceptor transactivation assay, RXRα; assay type: cell-based; details: for EC50: holoreceptor transactivation, read-out: RXR Trans. EC50 α; for Emax: percentage compared to the standard compound, read-out: RXR Trans. efficacy (number in parentheses) α
T4 construct: expressed in transfected cells
T4 sequence (P19793 1-462): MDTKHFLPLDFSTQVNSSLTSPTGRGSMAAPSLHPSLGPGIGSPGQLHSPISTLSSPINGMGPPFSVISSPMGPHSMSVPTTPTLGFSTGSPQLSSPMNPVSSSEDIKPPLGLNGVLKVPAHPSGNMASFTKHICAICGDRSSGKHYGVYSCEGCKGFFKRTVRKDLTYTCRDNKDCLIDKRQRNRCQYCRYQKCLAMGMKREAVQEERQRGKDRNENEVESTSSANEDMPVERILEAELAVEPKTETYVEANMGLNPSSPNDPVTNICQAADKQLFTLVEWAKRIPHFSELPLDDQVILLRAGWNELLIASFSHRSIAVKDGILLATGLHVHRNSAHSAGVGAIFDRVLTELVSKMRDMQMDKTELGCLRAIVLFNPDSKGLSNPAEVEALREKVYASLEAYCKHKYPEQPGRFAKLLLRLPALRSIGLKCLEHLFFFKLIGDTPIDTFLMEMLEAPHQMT
Source text: as §1, §2, §3, §4

Structure (SMILES)	EC50 (RXRγ)	RXR Trans. efficacy (number in parentheses) γ (RXRγ)	EC50 (RARβ)	Emax (RARβ)	Ki (RARα)	EC50 (RXRα)	Emax (RXRα)
CCOc1cc2c(cc1\C(C)=C(F)/C=C/C(C)=C/C(=O)O)C(C)=CCC2(C)C	0.003 µM	70%	0.316 µM	26%	0.261 µM	0.003 µM	62%
CCC1=CC(C)(C)Oc2cc(OC)c(\C(C)=C/C=C/C(C)=C/C(=O)O)cc21 [Compound 42, 7-(4-Ethyl-7-methoxy-2,2-dimethyl-2H-chromen-6-yl)-3-methyl-octa-2E,4E,6Z-trienoic acid]	0.013 µM	125%	0.845 µM	34%	8.9 µM	0.006 µM	99%
CCOc1cc2c(cc1\C(C)=C/C=C/C(C)=C/C(=O)O)C(CC)=CC(C)(C)O2 [Compound 45, 7-(7-Ethoxy-4-ethyl-2,2-dimethyl-2H-chromen-6-yl)-3-methyl-octa-2E,4E,6Z-trienoic acid]	–	–	> 1 µM	–	0.003 µM	0.078 µM	5%
CCOc1cc2c(cc1\C(=C/C=C/C(C)=C/C(=O)O)CC)C(C)=CC(C)(C)O2 [Compound 46, 7-(7-Ethoxy-2,2,4-trimethyl-2H-chromen-6-yl)-3-methyl-nona-2E,4E,6Z-trienoic acid]	> 1 µM	–	0.305 µM	6%	0.623 µM	> 1 µM	–
COc1cc2c(cc1\C(C)=C(F)/C=C/C(C)=C/C(=O)O)C(C(C)C)=CC(C)(C)O2 [Compound 121, (2E,4E,6E)-6-Fluoro-7-(4-isopropyl-7-methoxy-2,2-dimethyl-2H-chromen-6-yl)-3-methyl-octa-2,4,6-trienoic acid]	0.01 µM	79%	46.6 µM	–	0.692 µM	0.005 µM	59%
CCOc1cc2c(cc1\C(C)=C(F)/C=C/C(C)=C/C(=O)O)C(c1ccccc1)=CC(C)(C)O2 [Compound 127, (2E,4E,6E)-7-(7-Ethoxy-2,2-dimethyl-4-phenyl-2H-chromen-6-yl)-6-fluoro-3-methyl-octa-2,4,6-trienoic acid]	–	–	0.227 µM	17%	3.7 µM	–	–
CC/C(=C(F)/C=C/C(C)=C/C(=O)O)c1cc2c(cc1OC)OC(C)(C)C=C2C [Compound 129, 6-Fluoro-7-(7-methoxy-2,2,4-trimethyl-2H-chromen-6-yl)-3-methyl-nona-2E,4E,6E-trienoic acid]	0.053 µM	108%	0.563 µM	24%	0.177 µM	0.044 µM	99%

Compounds with a lower EC50 (RARβ), results first:

EC50 (RXRγ)	RXR Trans. efficacy (number in parentheses) γ (RXRγ)	EC50 (RARβ)	Emax (RARβ)	Ki (RARα)	EC50 (RXRα)	Emax (RXRα)	Structure (SMILES)
0.003 µM	95%	0.057 µM	37%	0.243 µM	0.002 µM	89%	COc1cc2c(cc1\C(C)=C/C=C/C(C)=C/C(=O)O)C(C(C)C)=CC(C)(C)O2 [Compound 43, 7-(4-Isopropyl-7-methoxy-2,2-dimethyl-2H-chromen-6-yl)-3-methyl-octa-2E,4E,6Z-trienoic acid]
0.0004 µM	97%	0.075 µM	25%	0.215 µM	0.0003 µM	89%	CC/C(=C/C=C/C(C)=C/C(=O)O)c1cc2c(cc1OC)OC(C)(C)C=C2C(C)C [Compound 44, 7-(4-Isopropyl-7-methoxy-22-dimethyl-2H-chromen-6-yl)-3-methyl-nona-2E,4E,6Z-trienoic acid]
0.0003 µM	97%	0.132 µM	12%	1 µM	0.0001 µM	93%	COc1c(\C(C)=C/C=C/C(C)=C/C(=O)O)cc2c(c1Cl)OC(C)(C)C=C2C(C)C [Compound 49, 7-(8-Chloro-4-isopropyl-7-methoxy-2,2-dimethyl-2H-chromen-6-y)-3-methyl-octa-2E,4E,6Z-trienoic acid]
–	–	0.09 µM	22%	0.302 µM	–	–	CCCOc1cc2c(cc1\C(C)=C(F)/C=C/C(C)=C/C(=O)O)C(c1ccccc1)=CC(C)(C)O2 [Compound 128, (2E,4E,6E)-7-(2,2-Dimethyl-4-phenyl-7-propoxy-2H-chromen-6-yl)-6-fluoro-3-methyl-octa-2,4,6-trienoic acid]
–	–	0.08 µM	13%	0.841 µM	–	–	CCCOc1cc2c(cc1\C(C)=C(F)/C=C/C(C)=C/C(=O)O)C(C(C)C)=CCC2(C)C [Compound A-80]
–	–	0.203 µM	23%	0.592 µM	–	–	CC(/C=C/C(F)=C(/C)c1cc2c(cc1OCC1CC1)C(C)(C)CC=C2C(C)C)=C\C(=O)O [Compound A-81, (2E,4E,6E)-6-Fluoro-3-(4-dimethyl-6-(cyclopropyl)methoxy-1-isopropyl-3,4-dihydronaphthalen-7-yl)-3-methyl-2,4.6-octa-trienoic acid]
–	–	0.056 µM	8%	1.1 µM	–	–	CCCOc1cc2c(cc1\C(C)=C(F)/C=C/C(C)=C/C(=O)O)C(C(C)(C)C)=CCC2(C)C [Compound A-84, (2E,4E,6E)-6-Fluoro-3-(4,$dimethyl-6-n-propoxy-1-tert-butyl-3,4-dihydronaphthalen-7-yl)-3-methyl-2,4,6-octatrienoic acid]
